In patent publication US10405547B2, “Substituted cyclic amides as herbicides” (FMC Corporation, priority 2015, dated 2019):

How the values were obtained:
Type in all cases: in vivo
[1] = system: ducksalad (Heteranthera limosa); assay: Test B flooded paddy test, ducksalad; conditions: 250 g ai/ha, applied to paddy water, visual rating after 13 to 15 days, scale 0 (no effect) to 100 (complete control)
Method in brief: (§1)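 Compound was added to standing water 3 cm above soil, flood maintained, and plants held in a greenhouse before visual scoring against controls at 13 to 15 days.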

[2] = system: ragweed (common ragweed, Ambrosia elatior); assay: Test A postemergence, ragweed; conditions: visual injury, 0 to 100 scale (0 no effect, 100 complete control), approximately 10 days
Method in brief: (§2)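 Injury scores (0 no effect, 100 complete control) were assigned by visually comparing treated with untreated plants after about 10 days of greenhouse growth. Seeds for soil treatment were sown into a loam and sand blend, while plants for foliar treatment grew in pots of that same blend.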

[3] = system: barnyardgrass (Echinochloa crus-galli); assay: Test A preemergence, barnyardgrass; conditions: 0 to 100 scale (0 no effect, 100 complete control)
Method in brief: as §2

[4] = system: galium (catchweed bedstraw, Galium aparine); assay: Test A postemergence, galium; conditions: visual injury, 0 to 100 scale (0 no effect, 100 complete control), approximately 10 days
Method in brief: as §2

[5] = system: sedge, umbrella (small-flower umbrella sedge, Cyperus difformis); assay: Test B flooded paddy test, umbrella sedge; conditions: 250 g ai/ha, applied to paddy water, visual rating after 13 to 15 days, scale 0 (no effect) to 100 (complete control)
Method in brief: as §1

[6] = system: blackgrass (Alopecurus myosuroides); assay: Test A postemergence, blackgrass; conditions: visual injury, 0 to 100 scale (0 no effect, 100 complete control), approximately 10 days
Method in brief: as §2

[7] = system: kochia (Kochia scoparia); assay: Test A postemergence, kochia; conditions: visual injury, 0 to 100 scale (0 no effect, 100 complete control), approximately 10 days
Method in brief: as §2

[8] = system: corn (Zea mays); assay: Test A postemergence, corn; conditions: visual injury, 0 to 100 scale (0 no effect, 100 complete control), approximately 10 days
Method in brief: as §2

[9] = system: barnyardgrass (Echinochloa crus-galli); assay: Test A postemergence, barnyardgrass; conditions: visual injury, 0 to 100 scale (0 no effect, 100 complete control), approximately 10 days
Method in brief: as §2

[10] = system: rice (Oryza sativa); assay: Test B flooded paddy test, rice; conditions: 250 g ai/ha, applied to paddy water, visual rating after 13 to 15 days, scale 0 (no effect) to 100 (complete control)
Method in brief: as §1

[11] = system: foxtail, giant (Setaria faberii); assay: Test A preemergence, giant foxtail; conditions: 0 to 100 scale (0 no effect, 100 complete control)
Method in brief: as §2

[12] = system: ragweed (common ragweed, Ambrosia elatior); assay: Test A preemergence, ragweed; conditions: 0 to 100 scale (0 no effect, 100 complete control)
Method in brief: as §2

[13] = system: barnyardgrass (Echinochloa crus-galli); assay: Test B flooded paddy test, barnyardgrass; conditions: 250 g ai/ha, applied to paddy water, visual rating after 13 to 15 days, scale 0 (no effect) to 100 (complete control)
Method in brief: as §1

[14] = system: ryegrass, Italian (Lolium multiflorum); assay: Test A preemergence, Italian ryegrass; conditions: 0 to 100 scale (0 no effect, 100 complete control)
Method in brief: as §2

[15] = system: pigweed (Amaranthus retroflexus); assay: Test A postemergence, pigweed; conditions: visual injury, 0 to 100 scale (0 no effect, 100 complete control), approximately 10 days
Method in brief: as §2

[16] = system: wheat (Triticum aestivum); assay: Test A postemergence, wheat; conditions: visual injury, 0 to 100 scale (0 no effect, 100 complete control), approximately 10 days
Method in brief: as §2

[17] = system: kochia (Kochia scoparia); assay: Test A preemergence, kochia; conditions: 0 to 100 scale (0 no effect, 100 complete control)
Method in brief: as §2

[18] = system: ryegrass, Italian (Lolium multiflorum); assay: Test A postemergence, Italian ryegrass; conditions: visual injury, 0 to 100 scale (0 no effect, 100 complete control), approximately 10 days
Method in brief: as §2

[19] = system: foxtail, giant (Setaria faberii); assay: Test A postemergence, giant foxtail; conditions: visual injury, 0 to 100 scale (0 no effect, 100 complete control), approximately 10 days
Method in brief: as §2

[20] = system: pigweed (Amaranthus retroflexus); assay: Test A preemergence, pigweed; conditions: 0 to 100 scale (0 no effect, 100 complete control)
Method in brief: as §2

SMILES | Plant response rating, Ducksalad (Flood) [1] | Plant response rating, Ragweed ([2]; 125 g ai/ha) | Plant response rating, Ragweed ([2]; 500 g ai/ha) | Plant response rating, Barnyardgrass ([3]; 125 g ai/ha) | Plant response rating, Barnyardgrass ([3]; 500 g ai/ha) | Plant response rating, Galium ([4]; 125 g ai/ha) | Plant response rating, Galium ([4]; 500 g ai/ha) | Plant response rating, Sedge, Umbrella (Flood) [5] | Plant response rating, Blackgrass ([6]; 125 g ai/ha) | Plant response rating, Blackgrass ([6]; 500 g ai/ha) | Plant response rating, Kochia ([7]; 125 g ai/ha) | Plant response rating, Kochia ([7]; 500 g ai/ha) | Plant response rating, Corn ([8]; 125 g ai/ha) | Plant response rating, Corn ([8]; 500 g ai/ha) | Plant response rating, Barnyardgrass ([9]; 125 g ai/ha) | Plant response rating, Barnyardgrass ([9]; 500 g ai/ha) | Plant response rating, Rice (Flood) [10] | Plant response rating, Foxtail, Giant ([11]; 125 g ai/ha) | Plant response rating, Foxtail, Giant ([11]; 500 g ai/ha) | Plant response rating, Ragweed ([12]; 125 g ai/ha) | other results
O=C1NCC(c2cccc(OCc3ccco3)c2)C1C(=O)Nc1cccc(F)c1F (stereo not drawn) [Compound 9] | 30 | 0 | 0 | 10 | 70 | 0 | 0 | 30 | 0 | 0 | 0 | 0 | 0 | 20 | 30 | 60 | 0 | 10 | 70 | 0 | Plant response rating, Ragweed ([12]; 500 g ai/ha): 0; Plant response rating, Barnyardgrass (Flood) [13]: 0; Plant response rating, Ryegrass, Italian ([14]; 125 g ai/ha): 0; Plant response rating, Ryegrass, Italian ([14]; 500 g ai/ha): 0; Plant response rating, Pigweed ([15]; 125 g ai/ha): 0; Plant response rating, Pigweed ([15]; 500 g ai/ha): 0; Plant response rating, Wheat ([16]; 125 g ai/ha): 0; Plant response rating, Wheat ([16]; 500 g ai/ha): 0; Plant response rating, Kochia ([17]; 125 g ai/ha): 0; Plant response rating, Kochia ([17]; 500 g ai/ha): 0; Plant response rating, Ryegrass, Italian ([18]; 125 g ai/ha): 0; Plant response rating, Ryegrass, Italian ([18]; 500 g ai/ha): 0; Plant response rating, Foxtail, Giant ([19]; 125 g ai/ha): 0; Plant response rating, Foxtail, Giant ([19]; 500 g ai/ha): 50; Plant response rating, Pigweed ([20]; 125 g ai/ha): 0; Plant response rating, Pigweed ([20]; 500 g ai/ha): 0
O=C1NCC(c2cccc(OCc3ccco3)c2)C1C(=O)Nc1ccccc1F (stereo not drawn) [Compound 10] | 60 | 0 | 0 | 0 | 0 | 0 | 0 | 40 | 0 | 0 | 0 | 0 | 0 | 0 | 10 | 60 | 0 | 0 | 0 | 0 | Plant response rating, Ragweed ([12]; 500 g ai/ha): 0; Plant response rating, Barnyardgrass (Flood) [13]: 0; Plant response rating, Ryegrass, Italian ([14]; 125 g ai/ha): 0; Plant response rating, Ryegrass, Italian ([14]; 500 g ai/ha): 0; Plant response rating, Pigweed ([15]; 125 g ai/ha): 0; Plant response rating, Pigweed ([15]; 500 g ai/ha): 0; Plant response rating, Wheat ([16]; 125 g ai/ha): 0; Plant response rating, Wheat ([16]; 500 g ai/ha): 0; Plant response rating, Kochia ([17]; 125 g ai/ha): 0; Plant response rating, Kochia ([17]; 500 g ai/ha): 0; Plant response rating, Ryegrass, Italian ([18]; 125 g ai/ha): 0; Plant response rating, Ryegrass, Italian ([18]; 500 g ai/ha): 0; Plant response rating, Foxtail, Giant ([19]; 125 g ai/ha): 0; Plant response rating, Foxtail, Giant ([19]; 500 g ai/ha): 30; Plant response rating, Pigweed ([20]; 125 g ai/ha): 0; Plant response rating, Pigweed ([20]; 500 g ai/ha): 0
O=C1NCC(c2cccc(OCC3CC3)c2)C1C(=O)Nc1ccccc1F (stereo not drawn) [Compound 11] | 0 | 30 | 40 | 60 | 90 | 0 | 30 | 0 | 0 | 40 | 0 | 0 | 0 | 20 | 50 | 90 | 0 | 80 | 90 | 0 | Plant response rating, Ragweed ([12]; 500 g ai/ha): 0; Plant response rating, Barnyardgrass (Flood) [13]: 0; Plant response rating, Ryegrass, Italian ([14]; 125 g ai/ha): 0; Plant response rating, Ryegrass, Italian ([14]; 500 g ai/ha): 20; Plant response rating, Pigweed ([15]; 125 g ai/ha): 0; Plant response rating, Pigweed ([15]; 500 g ai/ha): 20; Plant response rating, Wheat ([16]; 125 g ai/ha): 0; Plant response rating, Wheat ([16]; 500 g ai/ha): 20; Plant response rating, Kochia ([17]; 125 g ai/ha): 0; Plant response rating, Kochia ([17]; 500 g ai/ha): 40; Plant response rating, Ryegrass, Italian ([18]; 125 g ai/ha): 0; Plant response rating, Ryegrass, Italian ([18]; 500 g ai/ha): 20; Plant response rating, Foxtail, Giant ([19]; 125 g ai/ha): 50; Plant response rating, Foxtail, Giant ([19]; 500 g ai/ha): 90; Plant response rating, Pigweed ([20]; 125 g ai/ha): 0; Plant response rating, Pigweed ([20]; 500 g ai/ha): 30
O=C1NCC(c2cccc(OCC3CC3)c2)C1C(=O)Nc1cccc(F)c1F (stereo not drawn) [Compound 12] | 20 | 30 | 30 | 90 | 90 | 0 | 50 | 0 | 0 | 60 | 0 | 20 | 0 | 60 | 70 | 90 | 0 | 90 | 90 | 0 | Plant response rating, Ragweed ([12]; 500 g ai/ha): 0; Plant response rating, Barnyardgrass (Flood) [13]: 0; Plant response rating, Ryegrass, Italian ([14]; 125 g ai/ha): 0; Plant response rating, Ryegrass, Italian ([14]; 500 g ai/ha): 20; Plant response rating, Pigweed ([15]; 125 g ai/ha): 0; Plant response rating, Pigweed ([15]; 500 g ai/ha): 20; Plant response rating, Wheat ([16]; 125 g ai/ha): 0; Plant response rating, Wheat ([16]; 500 g ai/ha): 50; Plant response rating, Kochia ([17]; 125 g ai/ha): 0; Plant response rating, Kochia ([17]; 500 g ai/ha): 40; Plant response rating, Ryegrass, Italian ([18]; 125 g ai/ha): 20; Plant response rating, Ryegrass, Italian ([18]; 500 g ai/ha): 50; Plant response rating, Foxtail, Giant ([19]; 125 g ai/ha): 70; Plant response rating, Foxtail, Giant ([19]; 500 g ai/ha): 90; Plant response rating, Pigweed ([20]; 125 g ai/ha): 0; Plant response rating, Pigweed ([20]; 500 g ai/ha): 30
CC1(COc2cccc(C3CNC(=O)C3C(=O)Nc3ccccc3F)c2)COC1 (stereo not drawn) [Compound 14] | 70 | 0 | 0 | 10 | 80 | 0 | 0 | 20 | 0 | 0 | 0 | 0 | 0 | 0 | 10 | 60 | 0 | 30 | 90 | 0 | Plant response rating, Ragweed ([12]; 500 g ai/ha): 0; Plant response rating, Barnyardgrass (Flood) [13]: 0; Plant response rating, Ryegrass, Italian ([14]; 125 g ai/ha): 0; Plant response rating, Ryegrass, Italian ([14]; 500 g ai/ha): 0; Plant response rating, Pigweed ([15]; 125 g ai/ha): 0; Plant response rating, Pigweed ([15]; 500 g ai/ha): 0; Plant response rating, Wheat ([16]; 125 g ai/ha): 0; Plant response rating, Wheat ([16]; 500 g ai/ha): 0; Plant response rating, Kochia ([17]; 125 g ai/ha): 0; Plant response rating, Kochia ([17]; 500 g ai/ha): 0; Plant response rating, Ryegrass, Italian ([18]; 125 g ai/ha): 0; Plant response rating, Ryegrass, Italian ([18]; 500 g ai/ha): 0; Plant response rating, Foxtail, Giant ([19]; 125 g ai/ha): 10; Plant response rating, Foxtail, Giant ([19]; 500 g ai/ha): 70; Plant response rating, Pigweed ([20]; 125 g ai/ha): 0; Plant response rating, Pigweed ([20]; 500 g ai/ha): 0
